# Data as given in US11331335B2, “Sepsis treatment and related compositions methods and systems” (CALIFORNIA INSTITUTE OF TECHNOLOGY, priority 2015, dated 2022).
# Columns and labels:
# TNF-α or IL-6 production = assay: Cytokine induction by PSA administered i.v. alone; details: data not shown
# marginal zone B cells = assay: Transfer of MZ B cells from PSA treated donors into RAG-/- recipients, then LPS induced sepsis; assay type: in vivo, mouse
# Protocol: To further validate this conclusion, experiments were performed to determine whether the function of PSA on MZ B cells could be transplanted into mice that have never been treated with PSA. WT animals were treated i.v. with two doses of PSA and splenic MZ B cells were isolated and subsequently transferred into a RAG^−/− recipients. LPS induced sepsis was then induced in the MZ B cell recipients without any treatment with PSA.
# In particular a second set of experiments, WT C57Bl/6 animals were treated i.v. with either PBS or PSA (100 ug) every other day for a total of three days (FIG. 4 Panels C and D). MZ B cells were subsequently sort purified as in the first set of experiments and 8×10^5 MZ B cells were transferred into RAG^−/− recipients. Twenty-four hours later animals received high dose LPS (500 ug). Serum was collected at indicated time points to analyze TNF-α (FIG. 4 Panel E) and survival monitored (FIG. 4 Panel F). * p<0.05 **p<0.005 by a student's t test for all ELISA data and *p<0.05 **p<0.005 using a logrank and Gehan-Wilcoxon test for survival data.
# Marginal zone B cells secrete copious amounts of polyreactive IgM. […] Based on this, serum was isolated from RAG^−/− animals that received a MZ B transplant from PSA treated mice and quantitated IgM serum levels.
# [1] = tested on: endotoxin shock in IL-10−/− mice; assay: Endotoxin induced sepsis in IL-10-/- mice; assay type: in vivo, mouse
# Protocol: (§1) FIG. 6 Panels C and A show detection of TNF-a in TLR2^−/− or IL-10^−/− mice treated intravenously treated i.v. with PBS or PSA directly following induction of endotoxin shock by intraperitoneal administration of high doses of LPS (500 ug).
# (§2) Therefore, to determine whether PSA protection from endotoxin induced sepsis also required these pathways the following experiments were performed.
# TNBS colitis = assay: TNBS colitis, systemic (spleen) inflammation after PSA; assay type: in vivo, mouse
# Protocol: Three models of intestinal inflammation were used: 1) CD4^+CD45Rb^high T cells were purified from the spleens of wild-type or IL-10^−/− donor mice by flow cytometry and transferred into Rag (C57Bl/6) recipients as described. 2) TNBS colitis was induced by pre-sensitization of wild-type (C57Bl/6) mice on the skin with a TNBS/acetone mix. Seven days after sensitization, 2.5% TNBS in ethanol was administered rectally; mice were sacrificed 3-6 days later.
# Cytokines from the spleen, colons, or mesenteric lymphonodes (MLNs) were assayed by ELISA, Q-PCR, or flow cytometry. Colitis was assessed with tissue sections (fixed, paraffin embedded, sectioned onto a slide, and stained with hematoxylin and eosin) and was scored by a blinded pathologist (Dr. R. T. Bronson, Harvard Medical School) according to a standard scoring system: 0, no thickening of colonic tissues and no inflammation (infiltration of lymphocytes); 1, mild thickening of tissues but no inflammation; 2, mild thickening of tissues and mild inflammation; 3, severe thickening and severe inflammation. BMDCs were purified from femurs of mice after extraction and washing in PBS. Cells were cultured for 8 days in C-RPMI-10 in the presence of GM-CSF (20 ng/mL; Biosource, Camarillo, Calif.). CD4^+ T cells were purified by negative selection over a magnetic column (Miltenyi or R& D Systems).
# The backs of wild-type (C57BL/6) male mice were shaved, and pre-sensitization solution (150 μL; acetone with olive oil in a 4:1 ratio mixed with 5% TNBS in a 4:1 ratio) was slowly applied. […] Mice were analyzed 4-6 days after TNBS administration.
# Animals were orally gavaged with vehicle or PSA twenty-four hours prior to being induced with colitis. Five days post-induction CD4+ T cells were isolated from the spleens of indicated animals and analyzed for the inflammatory cytokines TNF-α, IL-17a and IL-6 to determine how systemic inflammation is influenced during intestinal disease.
# [2] = tested on: LPS sepsis in RAG−/− recipients of sIgM−/− B cells; assay: Endotoxin induced sepsis in RAG-/- recipients of B cells from sIgM-/- mice; assay type: in vivo, mouse
# Source text: To test whether IgM is the mechanism by which PSA is able to protect from endotoxin induced sepsis total B cells were isolated from the spleen of animals that are unable to make secreted IgM (sIgM^−/−) and transferred these cells into RAG^−/− recipients according to procedure of Example 7.
# [3] = tested on: LPS sepsis in RAG−/− recipients of B1 or MZ B cells; assay: Endotoxin induced sepsis in RAG-/- recipients of sort purified B1 or MZ B cells, treated with PSA; assay type: in vivo, mouse
# Protocol: Multiple subsets of B cells exist within the spleen including B1, follicular, and MZ B cell populations. […] Both B1 and MZ B cells can secrete IgM in a T cell independent manner, therefore experiments were performed to determine whether either of these subsets conferred protection from sepsis by PSA. B1 cells and MZ B cells were sort purified and transferred into RAG^−/− animals. Animals were subsequently treated with PSA and induced for disease.
# In particular in a first set of experiments, marginal zone B cells (CD19+B220+IgM^hiCD21^hiCD23) were sort purified and transferred into RAG^−/− recipients. Twenty-four hours later these animals were given high dose LPS and serum collected at 1 and 4 hours to assay for TNF-α (FIG. 4 Panel A) and survival was monitored (FIG. 4 Panel B).
# [4] = tested on: endotoxin shock in TLR2−/− mice; assay: Endotoxin induced sepsis in TLR2-/- mice; assay type: in vivo, mouse
# Protocol: as §1, §2
# [5] = tested on: cecal-ligation puncture (CLP) model; assay: Cecal-ligation puncture (CLP) model of sepsis; assay type: in vivo, mouse; details: PSA vs PBS mock treated (about fifty percent succumbed)
# Source text: To validate a role for PSA during protection from sepsis, a second, well-established mouse model of sepsis called the cecal-ligation puncture (CLP) model was used. CLP induces colonic spillage of bacteria into the peritoneal cavity, which then enter the bloodstream. Although there are limitations, this model is thought to best mimic a primary cause of human sepsis (polymicrobial infection from the gut).
# [6] = tested on: LPS sepsis in RAG−/− mice; assay: Endotoxin induced sepsis in RAG-/- mice with or without transfer of T cells, CD4 depleted splenocytes or CD19+ B cells; assay type: in vivo, mouse
# Protocol: In particular, the requirement for T and B cells during PSA mediated protection from sepsis was tested.
# In a first set of experiments, RAG^−/− animals were treated i.v. with either PBS or PSA 24 hours prior to receiving high dose LPS i.p. Serum was collected from animals at 1 and 4 hours, TNF-α and IL-6 were measured by ELISA (FIG. 3 Panel A) and survival monitored (FIG. 3 Panel B). Two experiments were combined. *p<0.05 **p<0.005 using a logrank and Gehan-Wilcoxon test.
# In a second set of experiments, RAG^−/− recipients received either CD4+CD3+ (square) or total T cells (CD3+) (triangle) or CD4 depleted splenocytes (includes CD8+ T cells and CD19+ B cells) (sphere). Twenty-four hours later animals were given LPS. Serum was collected 1 and 4 hours post-LPS to measure cytokines (FIG. 3 Panel C) and survival was monitored (FIG. 3 Panel D).
# In a third set of experiments sort purified CD19+ total B cells were purified from the spleen of donor animals and transferred into RAG^−/− recipients and inflammatory cytokines were monitored at 1 and 4 hours (FIG. 3 Panel E) as well as survival (FIG. 3 Panel F). * p<0.05 **p<0.005 by a student's t test for all ELISA data and *p<0.05 **p<0.005 using a logrank and Gehan-Wilcoxon test for survival data. ELISA data is representative from one experiment repeated twice with an n of 4 in each group. Survival data combines multiple experiments.
# [7] = tested on: endotoxin induced sepsis, Balb/c animals; assay: Endotoxin induced sepsis, PSA administered i.v. after LPS; assay type: in vivo, mouse
# Protocol: To mimic a clinically significant treatment situation, PSA was administered after inducing endotoxin induced sepsis. Balb/c animals were treated with high doses of LPS (500 ug) i.p. and subsequently treated i.v. with PBS, PSA or PSA was administered 30 minutes post-LPS (see FIG. 2).
# Since this is an acute model, where overt inflammation occurs within one hour after induction two timepoints for PSA treatment were tested. In particular, serum was collected 1 and 4 hours post-LPS injection and cytokines TNF-α (FIG. 2 Panel A) and IL-6 (FIG. 2 Panel B) were detected by ELISA.
# Each experiment consisted of at least 4 animals in each groups and was repeated twice. * p<0.05 **p<0.005 as measured by a students t test One group received i.v. administration of PSA directly after LPS injection (PSA same) while the second group received PSA thirty minutes post-LPS injection (PSA-post) (FIG. 2).
# [8] = tested on: endotoxin (lipopolysaccharide; LPS) induced sepsis, Balb/c animals; assay: Endotoxic shock model (high dose LPS), PSA given orally or intravenously before induction; assay type: in vivo, mouse
# Protocol: In this model, animals are treated intravenously with high doses of endotoxin (lipopolysaccharide; LPS). Administration of LPS leads to the production of massive amounts of inflammatory cytokines such as tumor necrosis factor α (TNF-α) and IL-6 and animals rapidly succumb to death. This model closely resembles the cytokine storm seen in patients suffering from septic shock.
# (§3) Five days post-induction CD4+ T cells were isolated from the spleens of the indicated animals. Equal amounts of RNA were used to perform q-RT-PCR on IL6 or TNFa cytokines at 1 and 4 hours post-LPS. (FIG. 1 panel A diagram on the left, and FIG. 1 panel B diagram on the left)
# as §3, with “In another set of experiments, Balb/c animals were treated intravenously with PSA 24 hours prior to be induced with TNBS colitis. Five” for “Five”, “right,” for “left,”, “right)” for “left)”
# Detection of percent survival of in animals treated intravenously with high doses of endotoxin (lipopolysaccharide; LPS) was performed. Accordingly, Balb/C animals were orally or intravenously treated with PSA or PBS as described in Example 2 and the number of surviving mice counted.
# [9] = PSA i.v. following LPS 500 ug i.p.
# [10] = RAG−/− mice reconstituted with CD19+ total B cells, i.v. PSA vs PBS
# [11] = PSA i.v. thirty minutes post-LPS (PSA post)
substance,measurement,setting,value
polysaccharide A [PSA],overt inflammation on i.v. administration,TNF-α or IL-6 production; PSA i.v. into animals,does not elicit overt inflammation
same,TNF-α or IL-6 production induced by PSA on its own,"TNF-α or IL-6 production; PSA i.v., no LPS",does not on its own induce
same,"protection from endotoxin induced sepsis (serum TNF-α, mortality)","marginal zone B cells; RAG−/− recipients of 8×10^5 MZ B cells from donors treated i.v. with PSA (100 ug), recipients not treated with PSA, LPS 500 ug",completely protected from endotoxin induced sepsis
same,IgM serum levels during LPS induced sepsis,marginal zone B cells; RAG−/− recipients of MZ B cells from PSA treated animals vs from mock treated mice,high levels of circulating IgM
same,TNFα and IL-6 levels during septic shock,[1]; PSA i.v.,suppressed
same,survival,[1]; [9],completely protected from death
same,"inflammatory cytokine expression (TNF-α, IL-17a, IL-6) in splenic CD4+ T cells","TNBS colitis; PSA orally gavaged 24 h prior to colitis induction, five days post-induction, vs colitogenic animals",reduced cytokine expression
same,"whether PSA influences inflammation within the systemic compartment (colon disease score, survival; FIG. 5 C, D)",TNBS colitis; intravenous PSA 24 h prior to TNBS colitis,supported this conclusion
same,splenomegaly in colitic animals,TNBS colitis; orally gavaged PSA,able to prevent
same,"protection from sepsis (serum inflammatory cytokines, death)",[2]; PSA i.v. treated animals vs PBS treated,protected
same,"protection from sepsis (serum inflammatory cytokines, death)","[2]; RAG−/− animals that received MZ B cells from sIgM−/− mice, PSA i.v.",no longer protected by administration of PSA
same,PSA mediated protection,"[3]; RAG−/− recipients of B1b cells, data not shown",did not restore PSA mediated protection
same,survival,"[3]; RAG−/− recipients of purified MZ B cells, PSA treated",protect animals from sepsis induced death
same,serum levels of TNF-α,"[3]; RAG−/− recipients of purified MZ B cells, PSA treated, 1 and 4 hours after high dose LPS",suppression of serum levels of TNF-α
same,TNFα and IL-6 levels during septic shock,[4]; PSA i.v.,suppressed
same,survival,[4]; [9],completely protected from death
same,survival,[5],significantly increased survival rate
same,"protection from sepsis (serum TNF-α, survival)","[6]; RAG−/− animals (no T and B cells), PSA i.v. 24 hours prior to high dose LPS i.p.",no longer protected animals from sepsis
same,serum levels of TNFα,[6]; [10],significantly reduced
same,survival,[6]; [10],survived
same,PSA mediated protection from death,[6]; RAG−/− recipients of CD3+ total T cells,unable to restore PSA mediated protection from death
same,prevention of death and suppression of systemic inflammation,[6]; RAG−/− recipients of CD4+ T cell depleted splenocytes,restored the ability of PSA to prevent death and suppress systemic inflammation
same,PSA mediated protection from death,[6]; RAG−/− recipients of CD4+ sort purified T cells,unable to restore PSA mediated protection from death
same,serum TNF-α and IL-6 levels,"[7]; PSA i.v. directly following LPS 500 ug i.p. (PSA same), 1 and 4 hours post-LPS",reduced levels
same,survival,[7]; PSA i.v. directly following LPS (PSA same),high survival rate
same,serum TNF-α,[7]; [11],lower serum levels
same,survival,[7]; [11],higher survival rate
same,"serum inflammatory cytokines (TNF-α, IL-6)","[8]; PSA provided directly within the blood (intravenous), 1 and 4 hours post-LPS, vs mock treated",significantly blocked induction of serum inflammatory cytokines
same,serum TNF-α,"[8]; animals fed PSA (oral gavage), vs mock treated",slightly elevated
same,survival,[8]; intravenous administration of PSA,potently protected animals from death
